Laboratory results from PubChem BioAssay AID248 (DTP/NCI, 2004).
Where “and” joins values, the source holds several entries; their conditions need not be identical. Equal entries are not always repeated. Toxic doses and inconclusive results are not listed. No stated cut-off is given here; in the data, active means T/C of 150% or more; inactive means T/C below 125%.

Test system: L1210 leukemia ip in BDF1 mice, survival T/C
Assay: NCI In Vivo Anticancer Drug Screen. Data for tumor model L1210 Leukemia (intraperitoneal) in B6D2F1 (BDF1) mice
Details: endpoint: mean survival time, higher = longer survival
Summary of the method: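 Transplantable tumor model; survival measured in treated vs vehicle control mice. Value = treated/control.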

[1] = dose: 100.0 mg/kg/injection, schedule: Q01DX009 (ip), vehicle: saline
[2] = dose: 50.0 mg/kg/injection, schedule: Q01DX001 (ip), vehicle: saline
[3] = dose: 100.0 mg/kg/injection, schedule: Q01DX001 (ip), vehicle: saline
[4] = dose: 200.0 mg/kg/injection, schedule: Q01DX001 (ip), vehicle: saline
[5] = dose: 400.0 mg/kg/injection, schedule: Q01DX001 (ip), vehicle: saline
[6] = dose: 100.0 mg/kg/injection, schedule: Q01DX001 (ip), vehicle: carboxymethylcellulose (CMC)
[7] = dose: 200.0 mg/kg/injection, schedule: Q01DX001 (ip), vehicle: carboxymethylcellulose (CMC)
[8] = dose: 400.0 mg/kg/injection, schedule: Q01DX001 (ip), vehicle: carboxymethylcellulose (CMC)
[9] = dose: 100.0 mg/kg/injection, schedule: Q01DX009 (ip), vehicle: saline with Tween-80
[10] = dose: 100.0 mg/kg/injection, schedule: Q04DX003 (ip), vehicle: saline with Tween-80
[11] = dose: 200.0 mg/kg/injection, schedule: Q01DX009 (ip), vehicle: saline with Tween-80
[12] = dose: 200.0 mg/kg/injection, schedule: Q04DX003 (ip), vehicle: saline with Tween-80
[13] = dose: 400.0 mg/kg/injection, schedule: Q01DX009 (ip), vehicle: saline with Tween-80
[14] = dose: 400.0 mg/kg/injection, schedule: Q04DX003 (ip), vehicle: saline with Tween-80
[15] = dose: 100.0 mg/kg/injection, schedule: Q01DX009 (ip), vehicle: Klucel (hydroxypropylcellulose) (HPC)
[16] = dose: 100.0 mg/kg/injection, schedule: Q04DX003 (ip), vehicle: Klucel (hydroxypropylcellulose) (HPC)
[17] = dose: 200.0 mg/kg/injection, schedule: Q01DX009 (ip), vehicle: Klucel (hydroxypropylcellulose) (HPC)
[18] = dose: 200.0 mg/kg/injection, schedule: Q04DX003 (ip), vehicle: Klucel (hydroxypropylcellulose) (HPC)
[19] = dose: 400.0 mg/kg/injection, schedule: Q01DX009 (ip), vehicle: Klucel (hydroxypropylcellulose) (HPC)
[20] = dose: 400.0 mg/kg/injection, schedule: Q04DX003 (ip), vehicle: Klucel (hydroxypropylcellulose) (HPC)

Measured: T/C

COc1ccc2c(c1)CN(S(=O)(=O)c1ccc(C)cc1)CCC2=O
inactive: [1] 102 % of control | dose: 200.0 mg/kg/injection, schedule: Q01DX009 (ip), vehicle: saline 98 % of control | dose: 400.0 mg/kg/injection, schedule: Q01DX009 (ip), vehicle: saline 95 % of control

C=CCOC(=O)C1OC12CCCCC2 (centres undefined)
inactive: [2] 104 % of control | [3] 95 % of control | [4] 101 % of control | [5] 98 % of control

O=C1c2ccccc2-c2ccc(N=C(NO)C(F)(F)F)cc21
inactive: [6] 118 % of control | [7] 98 % of control | [8] 98 % of control

CCOC(=O)/C=C\C(=O)O.[Mn]
inactive: dose: 25.0 mg/kg/injection, schedule: Q01DX009 (ip), vehicle: saline with Tween-80 97 % of control | dose: 25.0 mg/kg/injection, schedule: Q04DX003 (ip), vehicle: saline 108 % of control | dose: 50.0 mg/kg/injection, schedule: Q01DX009 (ip), vehicle: saline with Tween-80 108 % of control | dose: 50.0 mg/kg/injection, schedule: Q04DX003 (ip), vehicle: saline 106 % of control | [9] 110 % of control | dose: 100.0 mg/kg/injection, schedule: Q04DX003 (ip), vehicle: saline 103 % of control and 108 % of control | dose: 200.0 mg/kg/injection, schedule: Q04DX003 (ip), vehicle: saline 120 % of control

CN(C)c1ccc(/C=N/NC(=O)c2ccccc2)cc1
inactive: dose: 100.0 mg/kg/injection, schedule: Q04DX003 (ip), vehicle: other 94 % of control | dose: 200.0 mg/kg/injection, schedule: Q04DX003 (ip), vehicle: other 97 % of control | dose: 400.0 mg/kg/injection, schedule: Q04DX003 (ip), vehicle: other 98 % of control

c1ccc2c(c1)OCC(CNC1CCCCC1)O2 (centres undefined)
inactive: dose: 12.5 mg/kg/injection, schedule: Q04DX003 (ip), vehicle: saline with Tween-80 100 % of control | dose: 25.0 mg/kg/injection, schedule: Q04DX003 (ip), vehicle: saline with Tween-80 94 % of control and 100 % of control | dose: 50.0 mg/kg/injection, schedule: Q04DX003 (ip), vehicle: saline with Tween-80 94 % of control | [10] 98 % of control and 100 % of control

CCCN(CCC)c1ccc(SC#N)cc1
inactive: [3] 98 % of control | [4] 95 % of control

NC(=O)NC1OC(COC(=O)c2ccccc2)C(OC(=O)c2ccccc2)C1OC(=O)c1ccccc1 (centres undefined)
inactive: [9] 89 % of control | [10] 92 % of control | [11] 90 % of control | [12] 94 % of control | [13] 89 % of control | [14] 94 % of control

COC(=O)c1[nH]cnc1/N=N/Nc1ccc(Cl)c(Cl)c1
inactive: dose: 50.0 mg/kg/injection, schedule: Q01DX001 (ip), vehicle: other 94 % of control | dose: 100.0 mg/kg/injection, schedule: Q01DX001 (ip), vehicle: other 95 % of control and 103 % of control | dose: 200.0 mg/kg/injection, schedule: Q01DX001 (ip), vehicle: other 105 % of control and 110 % of control | dose: 400.0 mg/kg/injection, schedule: Q01DX001 (ip), vehicle: other 97 % of control and 100 % of control

CCC(C)NC1=CC(=O)c2ccccc2C1=O (centres undefined)
inactive: dose: 100.0 mg/kg/injection, schedule: Q01DX001 (ip), vehicle: saline with Tween-80 95 % of control | dose: 200.0 mg/kg/injection, schedule: Q01DX001 (ip), vehicle: saline with Tween-80 94 % of control

Cc1ccc(NC(=O)Nc2ccc(Cl)c(Cl)c2)cc1Cl
inactive: [15] 97 % of control | [16] 93 % of control | [17] 87 % of control | [18] 96 % of control | [19] 92 % of control | [20] 91 % of control

COc1cc2c(cc1O)CN(CCC(C)=O)CC2O (centres undefined)
inactive: dose: 25.0 mg/kg/injection, schedule: Q01DX009 (ip), vehicle: saline 101 % of control | dose: 50.0 mg/kg/injection, schedule: Q01DX009 (ip), vehicle: saline 93 % of control | [1] 86 % of control

CCOC(=O)NC(NC(=O)OCC)c1ccc(Cl)c(Cl)c1
inactive: [6] 98 % of control | [7] 98 % of control | [8] 93 % of control

O=C(O)C1CCCN1O (centres undefined)
inactive: [3] 104 % of control | [4] 98 % of control | [5] 98 % of control

CN1C2CC(OC3CCCCO3)C(C2)N1C (centres undefined)
inactive: [9] 95 % of control | [10] 94 % of control | dose: 132.0 mg/kg/injection, schedule: Q04DX003 (ip), vehicle: saline with Tween-80 100 % of control | [11] 100 % of control | [12] 102 % of control | dose: 300.0 mg/kg/injection, schedule: Q04DX003 (ip), vehicle: saline with Tween-80 117 % of control | [13] 93 % of control | [14] 102 % of control

COc1ccc(/C=[N+](\[O-])c2ccccc2)cc1
inactive: [2] 110 % of control | [3] 112 % of control | [4] 112 % of control | [5] 118 % of control

O=C(OCC(OC(=O)c1ccccc1)C1OCOC2COCOC21)c1ccccc1 (centres undefined)
inactive: dose: 100.0 mg/kg/injection, schedule: Q01DX001 (ip), vehicle: Klucel (hydroxypropylcellulose) (HPC) 101 % of control | dose: 200.0 mg/kg/injection, schedule: Q01DX001 (ip), vehicle: Klucel (hydroxypropylcellulose) (HPC) 101 % of control | dose: 400.0 mg/kg/injection, schedule: Q01DX001 (ip), vehicle: Klucel (hydroxypropylcellulose) (HPC) 97 % of control

CON(C)S(=O)c1ccc([N+](=O)[O-])cc1 (centres undefined)
inactive: [16] 100 % of control | [18] 97 % of control | [20] 94 % of control

C(=N\Nc1nnc(N/N=C/C2CCCCC2)c2ccccc12)/C1CCCCC1
inactive: [2] 100 % of control

Cc1cc(=O)[nH]c(N/N=C2/CCCCC2C)n1 (centres undefined)
inactive: dose: 50.0 mg/kg/injection, schedule: Q01DX009 (ip), vehicle: Klucel (hydroxypropylcellulose) (HPC) 100 % of control | [15] 95 % of control | [16] 100 % of control | [17] 100 % of control | [18] 97 % of control

Cc1cc(CC#N)c(C)c([N+](=O)[O-])c1
inactive: dose: 25.0 mg/kg/injection, schedule: Q04DX003 (ip), vehicle: Klucel (hydroxypropylcellulose) (HPC) 96 % of control | dose: 50.0 mg/kg/injection, schedule: Q04DX003 (ip), vehicle: Klucel (hydroxypropylcellulose) (HPC) 89 % of control

COc1ccc2c3c([nH]c2c1)C(C)=NCC3
inactive: dose: 25.0 mg/kg/injection, schedule: Q04DX002 (ip), vehicle: Klucel (hydroxypropylcellulose) (HPC) 93 % of control | dose: 50.0 mg/kg/injection, schedule: Q04DX002 (ip), vehicle: Klucel (hydroxypropylcellulose) (HPC) 101 % of control | dose: 100.0 mg/kg/injection, schedule: Q04DX002 (ip), vehicle: Klucel (hydroxypropylcellulose) (HPC) 93 % of control and 89 % of control

COc1ccc([N+](=O)[O-])cc1NC(=O)Nc1ccc(C(=O)OCC(C)C)cc1
inactive: [15] 100 % of control | [17] 100 % of control | [19] 95 % of control

CC1=CC2CCC1C2 (centres undefined)
inactive: dose: 75.0 mg/kg/injection, schedule: Q01DX001 (ip), vehicle: acetone 101 % of control | dose: 150.0 mg/kg/injection, schedule: Q01DX001 (ip), vehicle: acetone 95 % of control

NCc1ccccn1
inactive: [3] 98 % of control | [5] 95 % of control
